Calls of active or inactive are those of the source.
Tests used:
Format in all cases: functional, organism-based
[1] = tested on: Bacillus subtilis; test: Antimicrobial activity against Bacillus subtilis 6633 assessed as inhibition zone at 0.5 mg/ml by […]
[2] = tested on: Staphylococcus aureus; test: Antimicrobial activity against Staphylococcus aureus SG511 assessed as inhibition zone at 0.5 mg/ml by […]
[3] = tested on: Enterococcus faecalis; test: Antimicrobial activity against Enterococcus faecalis 1528 assessed as inhibition zone at 0.5 mg/ml by […]
[4] = tested on: Staphylococcus aureus; test: Antimicrobial activity against Staphylococcus aureus 134/94 assessed as inhibition zone at 0.5 mg/ml by […]
[5] = tested on: Mycolicibacterium vaccae; test: Antimicrobial activity against Mycobacterium vaccae 10670 assessed as inhibition zone at 0.5 mg/ml by […]

Measured: Activity

CC(C)[C@@H](C)/C=C/[C@@H](C)[C@H]1CC[C@H]2C3=CC=C4C[C@@H](O)CC[C@]4(C)[C@H]3CC[C@]12C
active: [1] | [2] | [3] | [4] | [5]

Source: ChEMBL document CHEMBL5137115, “Insights into the Metabolomic Capacity of Podaxis and Isolation of Podaxisterols A-D, Ergosterol Derivatives Carrying Nitrosyl Cyanide-Derived Modifications” (J Nat Prod, 2022)
